According to article PMC11532980, “Solvation free energy in governing equations for DNA hybridization, protein–ligand binding, and protein folding” (FEBS Open Bio, 2024):

Target: T1, ribonuclease A (RNase A) (Bos taurus, UniProt P61823)
T1 construct: gene RNASE1; native enzyme from bovine pancreas, commercial; mature secreted protein (signal peptide removed), no tag
T1 sequence (P61823 27-150): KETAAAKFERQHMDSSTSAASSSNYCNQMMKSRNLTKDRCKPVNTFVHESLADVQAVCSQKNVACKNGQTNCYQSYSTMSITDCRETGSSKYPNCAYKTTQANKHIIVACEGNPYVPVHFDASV
Assay: isothermal titration calorimetry
Assay type: binding
Conditions: 25 mM Bis-Tris, 25 mM KCl, pH 6.0, 25 °C; K per RNase A concentration (five concentrations, up to 0.6 mM); ligand from disodium salt; y-intercept of −RTlnK versus complex concentration (extrapolated t)

ΔG°: -6.46 ± 0.03 kcal/mol
Compound: O=c1ccn([C@@H]2O[C@H](CO)[C@@H](OP(=O)(O)O)[C@H]2O)c(=O)[nH]1 [3′‐UMP]
